Patent US20230089073A1 (Carmot Therapeutics, Inc., priority 2021, published 2023)

target: T1, human GLP-1 receptor (Homo sapiens, UniProt P43220); assay: GLP-1R cAMP Assay; type: cell-based; conditions: cAMP accumulation in CHO cells stably overexpressing the human GLP-1 receptor; 30 min treatment; HitHunter cAMP kit; read-out: EC50
T1 construct: expressed in transfected cells
Protocol: cAMP accumulation was measured in Chinese hamster ovary (CHO) cells stably overexpressing the human GLP-1 receptor using the HitHunter cAMP Assay for Small Molecules Kit (Eurofins). Briefly, cells were grown in Ham's F12 Nutrient Mix with 10% FBS, and lifted with Cell Dissociation Buffer, Enzyme free, PBS based (ThermoFisher). […] The anti-cAMP antibody reagent was then added to cells at a 1:2 ratio and 5 μL of mixture was seeded in 384-well small volume white assay plates, at 10,000 cells/well. Cells were then treated with 50 nL compound using an ECHO 550 acoustic dispenser (Labcyte) in a 20-point dose response format in triplicate for 30 min. Cells were then lysed, and detection reagents added according to the manufacturer's protocol. After overnight incubation, luminescence was measured using a Perkin Elmer Envision plate reader. Dose response curves were analyzed using GraphPad Prism 9.0.

T1 sequence (P43220 24-463): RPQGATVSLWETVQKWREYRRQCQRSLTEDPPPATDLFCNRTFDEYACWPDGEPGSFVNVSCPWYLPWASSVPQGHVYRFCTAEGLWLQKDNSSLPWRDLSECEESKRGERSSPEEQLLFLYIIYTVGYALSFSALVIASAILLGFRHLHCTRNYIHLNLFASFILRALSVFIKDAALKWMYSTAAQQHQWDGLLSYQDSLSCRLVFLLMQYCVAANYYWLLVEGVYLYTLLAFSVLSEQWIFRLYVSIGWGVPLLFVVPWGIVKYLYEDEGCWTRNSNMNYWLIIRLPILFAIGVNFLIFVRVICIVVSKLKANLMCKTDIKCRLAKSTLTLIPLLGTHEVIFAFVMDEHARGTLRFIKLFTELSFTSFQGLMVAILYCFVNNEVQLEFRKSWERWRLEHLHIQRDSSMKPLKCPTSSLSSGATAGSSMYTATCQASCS

EC50 [nM] | SMILES
< 50 | N#Cc1ccc(OCc2cc(OC3CCN(Cc4nc5c(F)cc(C(=O)O)cc5n4C[C@@H]4CCO4)CC3)ccn2)c(Cl)c1 [Compound 359]
< 50 | O=C(O)c1cc(F)c2nc(CN3CCC(Oc4ccnc(COc5ccc(Cl)cc5Cl)n4)CC3)n(C[C@@H]3CCO3)c2c1 [Compound 305]
> 500 | O=C(O)c1ccc2nc(CN3CCN(C(=O)c4ccc(COc5ccc(Cl)cc5F)o4)CC3)n(C[C@@H]3CCO3)c2c1 [Example 36, (S)-2-((4-(5-((4-Chloro-2-fluorophenoxy)methyl)furan-2-carbonyl)-piperazin-1-yl)methyl)-1-(oxetan-2-ylmethyl)-1H-benzo[d]imidazole-6-carboxylic acid]
50 to 500 | O=C(O)c1ccc2nc(CN3CCN(C(=O)c4cnc(COc5ccc(Cl)cc5Cl)o4)CC3)n(C[C@@H]3CCO3)c2c1 [Example 102, (S)-2-((4-(2-((2,4-Dichlorophenoxy)methyl)oxazole-5-carbonyl)piperazin-1-yl)methyl)-1-(oxetan-2-ylmethyl)-1H-benzo[d]imidazole-6-carboxylic acid]
< 50 | N#CCC1(Cn2c(CN3CCC(Oc4ccnc(COc5ccc(Cl)cc5Cl)n4)CC3)nc3ccc(C(=O)O)cc32)CC1 [Compound 340]
< 50 | CCN(c1cccc(C(=O)N2CCN(Cc3nc4ccc(C(=O)O)cc4n3C[C@@H]3CCO3)CC2)c1)c1ccc(C)cc1Cl [Compound 52, 2-[(4-{3-[(2-chloro-4-methylphenyl)(ethyl)amino]benzoyl}piperazin-1-yl)methyl]-1-{[(2S)-oxetan-2-yl]methyl}-1H-1,3-benzodiazole-6-carboxylic acid]
< 50 | N#Cc1ccc(OCc2cccc(OC3CCN(Cc4nc5ccc(C(=O)O)cc5n4C[C@@H]4CCO4)CC3)n2)c(F)c1 [Example 285, (S)-2-((4-((6-((4-Cyano-2-fluorophenoxy)methyl)pyridin-2-yl)oxy)piperidin-1-yl)methyl)-1-(oxetan-2-ylmethyl)-1H-benzo[d]imidazole-6-carboxylic acid]
> 500 | O=C(O)c1ccc2nc(CN3CCN(C(=O)c4ccc(OCc5ccc(Cl)cc5Cl)o4)CC3)n(C[C@@H]3CCO3)c2c1 [Example 73, (S)-2-((4-(5-((2,4-Dichlorobenzyl)oxy)furan-2-carbonyl)piperazin-1-yl)methyl)-1-(oxetan-2-ylmethyl)-1H-benzo[d]imidazole-6-carboxylic acid]
< 50 | O=C(O)c1ccc2nc(CN3CCC(Oc4ccnc(COc5ccc(C(F)(F)F)cc5F)n4)CC3)n(C[C@@H]3CCO3)c2n1 [Compound 371]
< 50 | O=C(O)c1ccc2nc(CN3CCC(Oc4ccnc(COc5ccc(Cl)cc5Cl)c4)CC3)n(Cc3ncco3)c2c1 [Compound 170, 2-{[4-({2-[(2,4-dichlorophenoxy)methyl]pyridin-4-yl}oxy)piperidin-1-yl]methyl}-1-[(1,3-oxazol-2-yl)methyl]-1H-1,3-benzodiazole-6-carboxylic acid]
< 50 | CCn1cncc1Cn1c(CN2CCC(Cc3cnc(COc4ccc(Cl)cc4Cl)o3)CC2)nc2ccc(C(=O)O)nc21 [Compound 125, 2-{[4-({2-[(2,4-dichlorophenoxy)methyl]-1,3-oxazol-5-yl}methyl)piperidin-1-yl]methyl}-3-[(1-ethyl-1H-imidazol-5-yl)methyl]-3H-imidazol[4,5-b]pyridine-5-carboxylic acid]
< 50 | Cc1ccc(N(C)c2cc(F)cc(C(=O)N3CCN(Cc4nc5ccc(C(=O)O)cc5n4C[C@@H]4CCO4)CC3)c2)c(Cl)c1 [Compound 100, 2-[(4-{3-[(2-chloro-4-methylphenyl)(methyl)amino]-5-fluorobenzoyl}piperazin-1-yl)methyl]-1-{[(2S)-oxetan-2-yl]methyl}-1H-1,3-benzodiazole-6-carboxylic acid]
< 50 | O=C(O)c1ccc2nc(CN3CCC(Oc4ccnc(COc5ccc(Cl)cc5F)c4)CC3)n(CC3(CF)CC3)c2c1 [Compound 321]
< 50 | N#Cc1cc(F)c(F)cc1OCc1nccc(OC2CCN(Cc3nc4ccc(C(=O)O)cc4n3C[C@@H]3CCO3)CC2)n1 [Compound 504, 2-{[4-({2-[(2-cyano-4,5-difluorophenoxy)methyl]pyrimidin-4-yl}oxy)piperidin-1-yl]methyl}-1-{[(2S)-oxetan-2-yl]methyl}-1H-1,3-benzodiazole-6-carboxylic acid]
< 50 | CCn1cncc1Cn1c(CN2CCC(Cc3cnc(COc4ncc(C5CC5)cc4Cl)o3)CC2)nc2ccc(C(=O)O)cc21 [Compound 144, 2-({4-[(2-{[(3-chloro-5-cyclopropylpyridin-2-yl)oxy]methyl}-1,3-oxazol-5-yl)methyl]piperidin-1-yl}methyl)-1-[(1-ethyl-1H-imidazol-5-yl)methyl]-1H-1,3-benzodiazole-6-carboxylic acid]
< 50 | N#CCC1(Cn2c(CN3CCC(Oc4ccnc(COc5ccc(Cl)cc5F)c4)CC3)nc3ccc(C(=O)O)cc32)CC1 [Compound 337]
50 to 500 | O=C(O)c1ccc2nc(CN3CCN(C(=O)c4ccc(COc5ccc(C6CC6)cc5Cl)o4)CC3)n(C[C@@H]3CCO3)c2c1 [Compound 81, 2-[(4-{5-[(2-chloro-4-cyclopropylphenoxy)methyl]furan-2-carbonyl}piperazin-1-yl)methyl]-1-{[(2S)-oxetan-2-yl]methyl}-1H-1,3-benzodiazole-6-carboxylic acid]
> 500 | Cc1ccc(N(C)c2cccc(S(=O)(=O)N3CCN(Cc4nc5ccc(C(=O)O)cc5n4C[C@@H]4CCO4)CC3)c2)c(Cl)c1 [Compound 86, 2-[(4-{3-[(2-chloro-4-methylphenyl)(methyl)amino]benzenesulfonyl}piperazin-1-yl)methyl]-1-{[(2S)-oxetan-2-yl]methyl}-1H-1,3-benzodiazole-6-carboxylic acid]
> 500 | Cc1ccc(Oc2cccc(C(=O)N3CCN(Cc4nc5ccc(C(=O)O)cc5n4C[C@@H]4CCO4)CC3)c2)c(F)c1 [Compound 16, 2-({4-[3-(2-fluoro-4-methylphenoxy)benzoyl]piperazin-1-yl}methyl)-1-{[(2S)-oxetan-2-yl]methyl}-1H-1,3-benzodiazole-6-carboxylic acid]
< 50 | O=C(O)c1cc(F)c2nc(CN3CCC(Oc4ccnc(COc5ccc(F)cc5Cl)n4)CC3)n(C[C@@H]3CCO3)c2c1 [Compound 329]
50 to 500 | CCn1cncc1Cn1c(CN2CCN(C(=O)c3cccc(Cc4ccc(C)cc4Cl)c3)CC2)nc2ccc(C(=O)O)cc21 [Compound 56, 2-[(4-{3-[(2-chloro-4-methylphenyl)methyl]benzoyl}piperazin-1-yl)methyl]-1-[(1-ethyl-1H-imidazol-5-yl)methyl]-1H-1,3-benzodiazole-6-carboxylic acid]
< 50 | N#Cc1ccc(OCc2cc(OC3CCN(Cc4nc5ccc(C(=O)O)cc5n4C[C@@H]4CCO4)CC3)cnn2)c(F)c1 [Compound 491, 2-{[4-({6-[(4-cyano-2-fluorophenoxy)methyl]pyridazin-4-yl}oxy)piperidin-1-yl]methyl}-1-{[(2S)-oxetan-2-yl]methyl}-1H-1,3-benzodiazole-6-carboxylic acid]
< 50 | CCn1cncc1Cn1c(CN2CC[C@H](Cc3cnc(COc4ccc(Cl)cc4Cl)o3)C[C@@H]2C)nc2ccc(C(=O)O)cc21 [Compound 279, 2-{[(2S,4S)-4-({2-[(2,4-dichlorophenoxy)methyl]-1,3-oxazol-5-yl}methyl)-2-methylpiperidin-1-yl]methyl}-1-[(1-ethyl-1H-imidazol-5-yl)methyl]-1H-1,3-benzodiazole-6-carboxylic acid]
< 50 | O=C(O)c1ccc2nc(CN3CCC(Oc4cccc(COc5cc(Cl)cc(Cl)c5)c4)CC3)n(C[C@@H]3CCO3)c2c1 [Compound 242, 2-[(4-{3-[(3,5-dichlorophenoxy)methyl]phenoxy}piperidin-1-yl)methyl]-1-{[(2S)-oxetan-2-yl]methyl}-1H-1,3-benzodiazole-6-carboxylic acid]
< 50 | O=C(O)c1ccc2nc(CN3CCC(Oc4cccc(COc5ccc(Cl)cc5F)n4)CC3)n(C[C@@H]3CCO3)c2c1 [Compound 249, 2-{[4-({6-[(4-chloro-2-fluorophenoxy)methyl]pyridin-2-yl}oxy)piperidin-1-yl]methyl}-1-{[(2S)-oxetan-2-yl]methyl}-1H-1,3-benzodiazole-6-carboxylic acid]
50 to 500 | CCn1cncc1Cn1c(CN2CCc3[nH]c4ccc(OCc5ccc(Cl)cc5Cl)cc4c3C2)nc2ccc(C(=O)O)cc21 [Compound 143, 2-({8-[(2,4-dichlorophenyl)methoxy]-1H,2H,3H,4H,5H-pyrido[4,3-b]indol-2-yl}methyl)-1-[(1-ethyl-1H-imidazol-5-yl)methyl]-1H-1,3-benzodiazole-6-carboxylic acid]
< 50 | Cc1ccc(N(C)c2cccc(C(=O)N3CCN(Cc4nc5ccc(C(=O)O)cc5n4C[C@@H]4CCO4)CC3)c2)c(C)c1 [Compound 45, 2-[(4-{3-[(2,4-dimethylphenyl)(methyl)amino]benzoyl}piperazin-1-yl)methyl]-1-{[(2S)-oxetan-2-yl]methyl}-1H-1,3-benzodiazole-6-carboxylic acid]
< 50 | O=C(O)c1ccc2nc(CN3CCC(Oc4cccc(COc5ccc(Cl)cc5Cl)n4)CC3)n(C[C@@H]3CCO3)c2c1 [Example 198, (S)-2-((4-((6-((2,4-Dichlorophenoxy)methyl)pyridin-2-yl)oxy)piperidin-1-yl)methyl)-1-(oxetan-2-ylmethyl)-1H-benzo[d]imidazole-6-carboxylic acid]
